Measurements taken from ChEMBL document CHEMBL5113438, “Discovery of highly potent and selective CRBN-recruiting EGFRL858R/T790M degraders in vivo” (Eur J Med Chem, 2022).
Activity calls are given as the source filed them. No cut-off for these calls is given here.

Experiments:
[1] = system: A549; assay: Antiproliferative activity against human A549 cells expressing wild type EGFR incubated for 72 hrs by CCK-8 assay; assay type: functional, cell-based; conditions: A549, 72 h
[2] = system: NCI-H1299; assay: Antiproliferative activity against human NCI-H1299 cells expressing wild type EGFR incubated for 72 hrs by CCK-8 assay; assay type: functional, cell-based; conditions: NCI-H1299, 72 h
[3] = system: HCC827; assay: Antiproliferative activity against human NCI-HCC827 cells expressing EGFR del19 incubated for 72 hrs by CCK-8 assay; assay type: functional, cell-based; conditions: HCC827, 72 h
[4] = system: NCI-H1975; assay: Antiproliferative activity against human NCI-H1975 cells expressing EGFR L858R/T790M incubated for 72 hrs by CCK-8 assay; assay type: functional, cell-based; conditions: NCI-H1975, 72 h
[5] = system: HMEC; assay: Cytotoxicity activity against HMEC cells upto 300 uM incubated for 72 hrs by CCK-8 assay; assay type: toxicity, cell-based; conditions: human
[6] = system: L02; assay: Cytotoxicity activity against human L02 cells upto 300 uM incubated for 72 hrs by CCK-8 assay; assay type: toxicity, cell-based; conditions: l02, 72 h
[7] = target: Serine/threonine-protein kinase AKT (Homo sapiens) (UniProt P31751+Q9Y243+P31749); assay: Inhibition of Akt phosphorylation in human NCI-H1975 cells preincubated under serum starvation for 8 hrs followed by compound addition measured after 48 hrs by Western blot analysis; assay type: cell-based; conditions: dose 10-1000 nM, DDE = dose-dependent effect
Sequence of Serine/threonine-protein kinase AKT (Homo sapiens) (P31749 whole entry, looked up): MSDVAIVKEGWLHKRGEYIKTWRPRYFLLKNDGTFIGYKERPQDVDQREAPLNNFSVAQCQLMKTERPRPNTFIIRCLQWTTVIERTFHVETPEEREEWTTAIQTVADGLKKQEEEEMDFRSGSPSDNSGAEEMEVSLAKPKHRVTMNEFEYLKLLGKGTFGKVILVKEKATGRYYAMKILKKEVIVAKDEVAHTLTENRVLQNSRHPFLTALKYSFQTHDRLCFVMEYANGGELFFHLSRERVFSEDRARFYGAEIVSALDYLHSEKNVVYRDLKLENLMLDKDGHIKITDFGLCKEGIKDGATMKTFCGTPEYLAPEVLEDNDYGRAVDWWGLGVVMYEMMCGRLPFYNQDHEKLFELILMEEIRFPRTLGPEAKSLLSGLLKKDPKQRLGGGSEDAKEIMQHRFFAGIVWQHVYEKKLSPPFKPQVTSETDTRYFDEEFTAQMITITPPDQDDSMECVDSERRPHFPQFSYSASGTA
Sequence of Serine/threonine-protein kinase AKT (Homo sapiens) (P31751 whole entry, looked up): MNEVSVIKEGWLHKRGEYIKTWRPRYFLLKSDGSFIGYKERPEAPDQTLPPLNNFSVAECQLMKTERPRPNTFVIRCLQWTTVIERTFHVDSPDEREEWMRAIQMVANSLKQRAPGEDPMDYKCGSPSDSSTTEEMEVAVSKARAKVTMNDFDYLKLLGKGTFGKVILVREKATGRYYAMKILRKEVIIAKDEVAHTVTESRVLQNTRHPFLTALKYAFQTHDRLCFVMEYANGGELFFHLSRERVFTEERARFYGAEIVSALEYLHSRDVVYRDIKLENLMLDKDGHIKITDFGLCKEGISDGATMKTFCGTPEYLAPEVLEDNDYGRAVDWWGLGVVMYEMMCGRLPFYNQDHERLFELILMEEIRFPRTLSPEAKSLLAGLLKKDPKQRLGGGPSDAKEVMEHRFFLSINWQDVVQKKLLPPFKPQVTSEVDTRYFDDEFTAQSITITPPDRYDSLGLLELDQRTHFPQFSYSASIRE
Sequence of Serine/threonine-protein kinase AKT (Homo sapiens) (Q9Y243 whole entry, looked up): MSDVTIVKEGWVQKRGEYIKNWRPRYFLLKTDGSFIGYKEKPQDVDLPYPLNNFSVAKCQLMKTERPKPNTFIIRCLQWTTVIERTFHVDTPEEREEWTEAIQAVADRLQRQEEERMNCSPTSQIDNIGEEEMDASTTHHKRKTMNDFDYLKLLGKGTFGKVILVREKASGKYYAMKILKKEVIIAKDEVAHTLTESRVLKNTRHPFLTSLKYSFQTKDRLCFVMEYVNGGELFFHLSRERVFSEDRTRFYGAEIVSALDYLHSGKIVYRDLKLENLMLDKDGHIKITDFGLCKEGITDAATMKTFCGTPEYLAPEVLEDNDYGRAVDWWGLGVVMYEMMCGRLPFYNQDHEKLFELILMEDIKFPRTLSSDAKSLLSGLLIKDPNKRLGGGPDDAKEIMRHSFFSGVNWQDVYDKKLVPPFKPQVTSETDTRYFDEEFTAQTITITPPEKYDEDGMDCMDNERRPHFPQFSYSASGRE

[8] = system: NCI-H1975; assay: Inhibition of ERK phosphorylation in human NCI-H1975 cells preincubated under serum starvation for 8 hrs followed by compound addition measured after 48 hrs by Western blot analysis; assay type: cell-based; conditions: dose 10-1000 nM, DDE = dose-dependent effect
[9] = system: NCI-H1975; assay: Induction of apoptosis in human NCI-H1975 cells assessed as viable cells at 0.1 uM incubated for 48 hrs by AnnexinV-FITC/propidium iodide staining based flow cytometry analysis (reference value: 96.2 % ); assay type: functional; conditions: read-out: Activity
[10] = system: NCI-H1975; assay: Induction of apoptosis in human NCI-H1975 cells assessed as viable cells at 1.0 uM incubated for 48 hrs by AnnexinV-FITC/propidium iodide staining based flow cytometry analysis (reference value: 96.2 % ); assay type: functional; conditions: read-out: Activity
[11] = system: NCI-H1975; assay: Induction of apoptosis in human NCI-H1975 cells assessed as early apoptotic cells at 0.1 uM incubated for 48 hrs by AnnexinV-FITC/propidium iodide staining based flow cytometry analysis (reference value: 0.11 % ); assay type: functional
[12] = system: NCI-H1975; assay: Induction of apoptosis in human NCI-H1975 cells assessed as early apoptotic cells at 1.0 uM incubated for 48 hrs by AnnexinV-FITC/propidium iodide staining based flow cytometry analysis (reference value: 0.11 % ); assay type: functional
[13] = system: NCI-H1975; assay: Induction of apoptosis in human NCI-H1975 cells assessed as late apoptotic cells at 1.0 uM incubated for 48 hrs by AnnexinV-FITC/propidium iodide staining based flow cytometry analysis (reference value: 1.35 % ); assay type: functional
[14] = system: NCI-H1975; assay: Induction of apoptosis in human NCI-H1975 cells assessed as necrotic cells at 0.1 uM incubated for 48 hrs by AnnexinV-FITC/propidium iodide staining based flow cytometry analysis (reference value: 3.28 % ); assay type: functional
[15] = system: NCI-H1975; assay: Induction of apoptosis in human NCI-H1975 cells assessed as necrotic cells at 1.0 uM incubated for 48 hrs by AnnexinV-FITC/propidium iodide staining based flow cytometry analysis (reference value: 3.28 % ); assay type: functional
[16] = system: NCI-H1299; assay: Induction of apoptosis in human NCI-H1299 cells assessed as viable cells at 0.1 uM incubated for 48 hrs by AnnexinV-FITC/propidium iodide staining based flow cytometry analysis (reference value: 98.05 % ); assay type: functional; conditions: read-out: Activity
[17] = system: NCI-H1299; assay: Induction of apoptosis in human NCI-H1299 cells assessed as early apoptotic cells at 1.0 uM incubated for 48 hrs by AnnexinV-FITC/propidium iodide staining based flow cytometry analysis (reference value: 0.11 % ); assay type: functional
[18] = system: NCI-H1299; assay: Induction of apoptosis in human NCI-H1299 cells assessed as late apoptotic cells at 0.1 uM incubated for 48 hrs by AnnexinV-FITC/propidium iodide staining based flow cytometry analysis (reference value: 1.53 % ); assay type: functional
[19] = system: NCI-H1299; assay: Induction of apoptosis in human NCI-H1299 cells assessed as late apoptotic cells at 1.0 uM incubated for 48 hrs by AnnexinV-FITC/propidium iodide staining based flow cytometry analysis (reference value: 1.53 % ); assay type: functional
[20] = system: NCI-H1975; assay: Induction of cell cycle arrest in human NCI-H1975 cells assessed as accumulation of cells in G2/M phase by PI staining based flow cytometry method; assay type: functional; conditions: dose 0.1-1 µM, DDE = dose-dependent effect
[21] = system: NCI-H1975; assay: Antitumor activity against human NCI-H1975 cells xenografted in […] mouse assessed as tumor growth inhibition at 10 mg/kg, ip administered once daily for 24 days relative to control; assay type: functional; conditions: NCI-H1975, 576 h, time 24 day, read-out: TGI
[22] = Toxicity in BALB/c mouse xenografted with human NCI-H1975 cells assessed as change in body weight pretreated with compound at 10 mg/kg, ip administered once daily for 24 days and measured every 3 days […]; assay type: organism-based; conditions: in vivo, 576 h, time 24 day
[23] = Toxicity in BALB/c mouse xenografted with human NCI-H1299 cells assessed as change in body weight pretreated with compound at 10 mg/kg, ip administered once daily for 24 days and measured every 3 days […]; assay type: organism-based; conditions: in vivo, 576 h, time 24 day
[24] = Half life in Sprague-Dawley rat at 1 mg/kg, iv measured upto 24 hrs by LC-MS/MS analysis; assay type: ADME, organism-based; conditions: in vivo
[25] = Half life in Sprague-Dawley rat at 10 mg/kg, ip measured upto 24 hrs by LC-MS/MS analysis; assay type: ADME, organism-based; conditions: in vivo
[26] = Tmax in Sprague-Dawley rat at 10 mg/kg, ip measured upto 24 hrs by LC-MS/MS analysis; assay type: ADME, organism-based; conditions: in vivo
[27] = Cmax in Sprague-Dawley rat at 10 mg/kg, ip measured upto 24 hrs by LC-MS/MS analysis; assay type: ADME, organism-based; set-up: time < 24 hrs, dose 10 mg/kg, route ip; conditions: in vivo
[28] = AUC (0 to t) in Sprague-Dawley rat at 1 mg/kg, iv measured upto 24 hrs by LC-MS/MS analysis; assay type: ADME, organism-based; set-up: time < 24 hrs, dose 1 mg/kg, route iv; conditions: in vivo
[29] = AUC (0 to t) in Sprague-Dawley rat at 10 mg/kg, ip measured upto 24 hrs by LC-MS/MS analysis; assay type: ADME, organism-based; set-up: dose 10 mg/kg, time < 24 hrs, route ip; conditions: in vivo
[30] = AUC (0 to infinity) in Sprague-Dawley rat at 1 mg/kg, iv measured upto 24 hrs by LC-MS/MS analysis; assay type: ADME, organism-based; set-up: dose 1 mg/kg, time < 24 hrs, route iv; conditions: in vivo
[31] = AUC (0 to infinity) in Sprague-Dawley rat at 10 mg/kg, ip measured upto 24 hrs by LC-MS/MS analysis; assay type: ADME, organism-based; set-up: time < 24 hrs, dose 10 mg/kg, route ip; conditions: in vivo
[32] = Volume of distribution at steady state in Sprague-Dawley rat at 1 mg/kg, iv measured upto 24 hrs by LC-MS/MS analysis; assay type: ADME, organism-based; conditions: in vivo, read-out: Vdss
[33] = Clearance in Sprague-Dawley rat at 1 mg/kg, iv measured upto 24 hrs by LC-MS/MS analysis; assay type: ADME, organism-based; conditions: in vivo
[34] = Plasma protein binding in rat assessed as unbound fraction at 1 uM incubated for 4 hrs by rapid equilibrium dialysis method; assay type: ADME, cell-free; conditions: read-out: PPB (converted)
[35] = system: Epidermal growth factor receptor (Homo sapiens), P00533 [L858R,T790M]; assay: Inhibition of EGFR L858R/T790M mutant phosphorylation in human NCI-H1975 cells at 1 uM measured after 48 hrs by Western blot assay; assay type: cell-based
Sequence of Epidermal growth factor receptor (Homo sapiens), P00533 [L858R,T790M] (P00533 whole entry T790M/L858R, looked up): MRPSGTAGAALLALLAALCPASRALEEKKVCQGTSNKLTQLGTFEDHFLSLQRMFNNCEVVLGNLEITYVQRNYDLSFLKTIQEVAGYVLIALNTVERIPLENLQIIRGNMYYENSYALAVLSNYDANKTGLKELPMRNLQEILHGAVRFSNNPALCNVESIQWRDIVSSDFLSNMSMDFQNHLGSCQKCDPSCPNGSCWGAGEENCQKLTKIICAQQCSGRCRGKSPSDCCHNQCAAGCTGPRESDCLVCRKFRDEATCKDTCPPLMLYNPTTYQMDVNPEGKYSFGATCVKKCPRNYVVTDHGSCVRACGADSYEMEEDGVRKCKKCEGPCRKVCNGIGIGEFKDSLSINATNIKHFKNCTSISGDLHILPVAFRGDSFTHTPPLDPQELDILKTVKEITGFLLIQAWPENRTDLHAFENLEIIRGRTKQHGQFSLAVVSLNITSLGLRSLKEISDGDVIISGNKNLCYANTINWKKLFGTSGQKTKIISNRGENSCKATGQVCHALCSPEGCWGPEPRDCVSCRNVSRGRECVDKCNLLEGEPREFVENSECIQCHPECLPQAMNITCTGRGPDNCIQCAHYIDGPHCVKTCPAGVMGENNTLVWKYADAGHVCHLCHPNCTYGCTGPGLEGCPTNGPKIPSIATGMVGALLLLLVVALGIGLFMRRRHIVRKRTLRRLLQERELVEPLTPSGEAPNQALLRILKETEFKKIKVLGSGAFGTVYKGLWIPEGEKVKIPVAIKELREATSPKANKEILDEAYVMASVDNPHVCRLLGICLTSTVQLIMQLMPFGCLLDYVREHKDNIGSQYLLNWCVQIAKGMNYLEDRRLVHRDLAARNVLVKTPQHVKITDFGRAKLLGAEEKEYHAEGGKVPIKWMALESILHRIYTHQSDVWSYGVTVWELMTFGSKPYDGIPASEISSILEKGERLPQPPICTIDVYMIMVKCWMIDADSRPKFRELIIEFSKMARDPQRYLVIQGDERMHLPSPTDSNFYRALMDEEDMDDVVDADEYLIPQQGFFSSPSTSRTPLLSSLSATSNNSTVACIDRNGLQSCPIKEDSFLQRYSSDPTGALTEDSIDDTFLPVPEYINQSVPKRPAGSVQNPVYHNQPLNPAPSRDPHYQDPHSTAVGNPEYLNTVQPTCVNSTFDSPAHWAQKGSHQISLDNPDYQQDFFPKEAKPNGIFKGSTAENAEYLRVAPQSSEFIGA

SMILES	IC50 [1]	IC50 [2]	IC50 [3]	IC50 [4]	Activity [5]	Activity [6]	inhibition [7]	inhibition [8]	viability at 0.1 µM [9]	viability at 1 µM [10]	Activity [11]	Activity [12]	Activity [13]	Activity [14]	Activity [15]	viability at 0.1 µM [16]	Activity [17]	Activity [18]	Activity [19]	Activity [20]	further results
C#CCN(CCCC(=O)Nc1cccc2c1CN(C1CCC(=O)NC1=O)C2=O)CCN(C)c1cc(OC)c(Nc2nccc(-c3cn(C)c4ccccc34)n2)cc1NC(=O)C=C (stereo not given)	> 100000 nM	> 100000 nM	1120 nM	46.8 nM	Non-Toxic	Non-Toxic	Dde	Dde	85.6%	69%	0.23%	0.72%	25.1%	9.3%	15.2%	98%	0.082%	1.27%	0.37%	Dde	inhibition in vivo at 10 mg/kg [21]: 63.7%; Activity [22]: Non-Toxic; Activity [23]: Non-Toxic; half-life [24]: 2.64 h; half-life [25]: 1.85 h; Tmax [26]: 4.5 h; Cmax [27]: 128 ng/mL; AUC(0-t) at 24 h [28]: 483 ng·h/mL; AUC(0-t) at 24 h [29]: 971 ng·h/mL; AUC ([30]; 24 h): 973 ng·h/mL; AUC(0-inf) [31]: 973 ng·h/mL; Vd [32]: 7.87 L/kg; CL ([33]; iv, 1 mg/kg, 24 h): 34.55 mL/min/kg; fraction unbound at 4 h, 1 µM [34]: 0.002; inhibition [35]: Active
C#CCN(CCC(=O)Nc1cccc2c1CN(C1CCC(=O)NC1=O)C2=O)CCN(C)c1cc(OC)c(Nc2nccc(-c3cn(C)c4ccccc34)n2)cc1NC(=O)C=C (stereo not given)	> 100000 nM	> 100000 nM	1210 nM	58.1 nM	Non-Toxic	Non-Toxic	Dde	Dde	90.8%	50.8%	1.51%	0.55%	24.3%	0.96%	14.3%	97.7%	0.08%	1.79%	2.15%	Dde	inhibition in vivo at 10 mg/kg [21]: 55.2%; Activity [22]: Non-Toxic; Activity [23]: Non-Toxic; half-life [24]: 2.29 h; half-life [25]: 2.17 h; Tmax [26]: 4.67 h; Cmax [27]: 197 ng/mL; AUC(0-t) at 24 h [28]: 460 ng·h/mL; AUC(0-t) at 24 h [29]: 1540 ng·h/mL; AUC(0-inf) ([30]; Sprague-Dawley): 461 ng·h/mL; AUC(0-inf) [31]: 1610 ng·h/mL; Vd [32]: 7.38 L/kg; clearance ([33]; Sprague-Dawley): 37.1 mL/min/kg; fraction unbound at 4 h, 1 µM [34]: 0.001; inhibition [35]: Active
